Reference: US20240108725A1, “METHOD FOR TREATING CANCER AND SYSTEM FOR SAME” (OTSUKA MEDICAL DEVICES CO., LTD, priority 2020, published 2024)

System: TL-Om1 cells
Assay: Rate of dead cells after 5-ALA PDT in erythrocyte solution, TL-Om1 cells, Example 3
Assay type: cell-based, human
Experimental: C6 cells or human leukemia cell line TL-Oml cells were cultured in 2.5% FBS/F-12K medium (C6 cells) or 10% FBS/RPMI1640 (TL-Oml cells) supplemented with 5-ALA to a final concentration of 0.125 to 0.5 mM in a 5% CO2 incubator at 37° C. for 4 hours. After the culture, the cells were removed with a 0.25% trypsin-EDTA solution, and the collected cells were adjusted to 2×10^7 cells/mL with an erythrocyte solution (a solution in which erythrocytes and PBS were mixed at a ratio of 45:55). The cell suspension thus prepared was injected into a Tygon tube (inner diameter: 0.79 mm), wrapped around a light irradiator, and irradiated with light having a wavelength of 630 nm so that the irradiation energy density was 0.5 to 500 J/cm^2. After the irradiation, an ammonium chloride solution was added to the cell suspension to hemolyze the erythrocytes. Cells before the PDT treatment, after the PDT treatment, and after 24-hour culture were stained with the FITC Annexin V Apoptosis Detection Kit I and the rate of dead cells was analyzed with a flow cytometer.

[1] = 5-ALA 0.125 mM, 10 J/cm^2, 24 hours after irradiation
[2] = 5-ALA 0.125 mM, 50 J/cm^2, 24 hours after irradiation
[3] = 5-ALA 0.125 mM, 100 J/cm^2, 24 hours after irradiation
[4] = 5-ALA 0.125 mM, 200 J/cm^2, 24 hours after irradiation
[5] = 5-ALA 0.125 mM, 300 J/cm^2, 24 hours after irradiation
[6] = 5-ALA 0.125 mM, 400 J/cm^2, 24 hours after irradiation
[7] = 5-ALA 0.125 mM, 500 J/cm^2, 24 hours after irradiation
[8] = 5-ALA 0.25 mM, 1 J/cm^2, 24 hours after irradiation
[9] = 5-ALA 0.25 mM, 1 J/cm^2, immediately after irradiation
[10] = 5-ALA 0.25 mM, 2.5 J/cm^2, 24 hours after irradiation
[11] = 5-ALA 0.25 mM, 2.5 J/cm^2, immediately after irradiation
[12] = 5-ALA 0.25 mM, 5 J/cm^2, 24 hours after irradiation
[13] = 5-ALA 0.25 mM, 5 J/cm^2, immediately after irradiation
[14] = 5-ALA 0.25 mM, 10 J/cm^2, 24 hours after irradiation
[15] = 5-ALA 0.25 mM, 10 J/cm^2, immediately after irradiation
[16] = 5-ALA 0.25 mM, 50 J/cm^2, 24 hours after irradiation
[17] = 5-ALA 0.25 mM, 50 J/cm^2, immediately after irradiation
[18] = 5-ALA 0.25 mM, 100 J/cm^2, 24 hours after irradiation
[19] = 5-ALA 0.25 mM, 100 J/cm^2, immediately after irradiation
[20] = 5-ALA 0.25 mM, 200 J/cm^2, 24 hours after irradiation
[21] = 5-ALA 0.25 mM, 200 J/cm^2, immediately after irradiation
[22] = 5-ALA 0.25 mM, 300 J/cm^2, 24 hours after irradiation
[23] = 5-ALA 0.25 mM, 300 J/cm^2, immediately after irradiation
[24] = 5-ALA 0.25 mM, 400 J/cm^2, 24 hours after irradiation
[25] = 5-ALA 0.25 mM, 400 J/cm^2, immediately after irradiation
[26] = 5-ALA 0.25 mM, 500 J/cm^2, 24 hours after irradiation
[27] = 5-ALA 0.25 mM, 500 J/cm^2, immediately after irradiation
[28] = 5-ALA 0.5 mM, 1 J/cm^2, immediately after irradiation
[29] = 5-ALA 0.5 mM, 2.5 J/cm^2, immediately after irradiation
[30] = 5-ALA 0.5 mM, 5 J/cm^2, immediately after irradiation
[31] = 5-ALA 0.5 mM, 10 J/cm^2, immediately after irradiation
[32] = 5-ALA 0.5 mM, 50 J/cm^2, immediately after irradiation
[33] = 5-ALA 0.5 mM, 100 J/cm^2, immediately after irradiation
[34] = 5-ALA 0.5 mM, 200 J/cm^2, immediately after irradiation
[35] = 5-ALA 0.5 mM, 300 J/cm^2, immediately after irradiation
[36] = 5-ALA 0.5 mM, 400 J/cm^2, immediately after irradiation
[37] = 5-ALA 0.5 mM, 500 J/cm^2, immediately after irradiation

NCC(=O)CCC(=O)O [5-ALA, 5-aminolevulinic acid]
Annexin V+/PI+ (%) [1]: 6%
Annexin V+/PI− (%) [1]: 4%
Annexin V+/PI+ (%) [2]: 6%
Annexin V+/PI− (%) [2]: 4%
Annexin V+/PI+ (%) [3]: 6%
Annexin V+/PI− (%) [3]: 5%
Annexin V+/PI+ (%) [4]: 7%
Annexin V+/PI− (%) [4]: 4%
Annexin V+/PI+ (%) [5]: 9%
Annexin V+/PI− (%) [5]: 4%
Annexin V+/PI+ (%) [6]: 12%
Annexin V+/PI− (%) [6]: 8%
Annexin V+/PI+ (%) [7]: 33%
Annexin V+/PI− (%) [7]: 14%
Annexin V+/PI+ (%) [8]: 4%
Annexin V+/PI− (%) [8]: 6%
Annexin V−/PI− (%) [8]: 90%
Annexin V+/PI+ (%) [9]: 8%
Annexin V+/PI− (%) [9]: 4%
Annexin V−/PI− (%) [9]: 88%
Annexin V+/PI+ (%) [10]: 4%
Annexin V+/PI− (%) [10]: 7%
Annexin V−/PI− (%) [10]: 89%
Annexin V+/PI+ (%) [11]: 6%
Annexin V+/PI− (%) [11]: 4%
Annexin V−/PI− (%) [11]: 89%
Annexin V+/PI+ (%) [12]: 4%
Annexin V+/PI− (%) [12]: 8%
Annexin V−/PI− (%) [12]: 88%
Annexin V+/PI+ (%) [13]: 7%
Annexin V+/PI− (%) [13]: 4%
Annexin V−/PI− (%) [13]: 88%
Annexin V+/PI+ (%) [14]: 6%
Annexin V+/PI− (%) [14]: 8%
Annexin V−/PI− (%) [14]: 86%
Annexin V+/PI+ (%) [15]: 6%
Annexin V+/PI− (%) [15]: 4%
Annexin V−/PI− (%) [15]: 90%
Annexin V+/PI+ (%) [16]: 9%
Annexin V+/PI− (%) [16]: 9%
Annexin V−/PI− (%) [16]: 83%
Annexin V+/PI+ (%) [17]: 8%
Annexin V+/PI− (%) [17]: 4%
Annexin V−/PI− (%) [17]: 87%
Annexin V+/PI+ (%) [18]: 10%
Annexin V+/PI− (%) [18]: 8%
Annexin V−/PI− (%) [18]: 83%
Annexin V+/PI+ (%) [19]: 10%
Annexin V+/PI− (%) [19]: 4%
Annexin V−/PI− (%) [19]: 85%
Annexin V+/PI+ (%) [20]: 11%
Annexin V+/PI− (%) [20]: 10%
Annexin V−/PI− (%) [20]: 79%
Annexin V+/PI+ (%) [21]: 12%
Annexin V+/PI− (%) [21]: 5%
Annexin V−/PI− (%) [21]: 82%
Annexin V+/PI+ (%) [22]: 14%
Annexin V+/PI− (%) [22]: 11%
Annexin V−/PI− (%) [22]: 75%
Annexin V+/PI+ (%) [23]: 13%
Annexin V+/PI− (%) [23]: 4%
Annexin V−/PI− (%) [23]: 82%
Annexin V+/PI+ (%) [24]: 34%
Annexin V+/PI− (%) [24]: 16%
Annexin V−/PI− (%) [24]: 50%
Annexin V+/PI+ (%) [25]: 18%
Annexin V+/PI− (%) [25]: 4%
Annexin V−/PI− (%) [25]: 77%
Annexin V+/PI+ (%) [26]: 72%
Annexin V+/PI− (%) [26]: 21%
Annexin V−/PI− (%) [26]: 7%
Annexin V+/PI+ (%) [27]: 33%
Annexin V+/PI− (%) [27]: 3%
Annexin V−/PI− (%) [27]: 63%
Annexin V+/PI+ (%) [28]: 7%
Annexin V+/PI− (%) [28]: 3%
Annexin V−/PI− (%) [28]: 89%
Annexin V+/PI+ (%) [29]: 5%
Annexin V+/PI− (%) [29]: 2%
Annexin V−/PI− (%) [29]: 92%
Annexin V+/PI+ (%) [30]: 7%
Annexin V+/PI− (%) [30]: 3%
Annexin V−/PI− (%) [30]: 90%
Annexin V+/PI− (%) [31]: 3%
Annexin V−/PI− (%) [31]: 89%
Annexin V+/PI− (%) [32]: 3%
Annexin V−/PI− (%) [32]: 83%
Annexin V+/PI− (%) [33]: 3%
Annexin V−/PI− (%) [33]: 80%
Annexin V+/PI− (%) [34]: 3%
Annexin V−/PI− (%) [34]: 78%
Annexin V+/PI+ (%) [35]: 23%
Annexin V+/PI− (%) [35]: 3%
Annexin V−/PI− (%) [35]: 72%
Annexin V+/PI+ (%) [36]: 32%
Annexin V+/PI− (%) [36]: 3%
Annexin V−/PI− (%) [36]: 61%
Annexin V+/PI+ (%) [37]: 62%
Annexin V+/PI− (%) [37]: 2%
Annexin V−/PI− (%) [37]: 30%
